Experimental data taken from patent US20020137929A1, “1 - (3-heterocyclylphenyl) isothiourea, -isourea, -guanidine and -amidine herbicidal agents” (Intellectual Property Department, BASF Aktiengesellschaft, priority 1998, published 2002).

Key:
[1] = test system: ABUTH (Velvetleaf); assay: Postemergence herbicidal evaluation; type: in vivo, Abutilon theophrasti; details: postemergence
Method in brief: (§1)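 Compound is applied as a foliar spray to seedlings about two weeks old, formulated in equal parts acetone and water with 0.5% TWEEN 20 and delivered at 40 psi to give about 0.0156–0.500 kg per hectare. Injury is rated visually 0–9 after four to five weeks.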

[2] = test system: GALAP (Galium); assay: Postemergence herbicidal evaluation; type: in vivo, Galium aparine; details: postemergence
Method in brief: as §1

[3] = test system: ECHCG (Barnyardgrass); assay: Postemergence herbicidal evaluation; type: in vivo, Echinochloa crus-galli; details: postemergence
Method in brief: as §1

[4] = test system: SETVI (Foxtail, Green); assay: Postemergence herbicidal evaluation; type: in vivo, Setaria viridis; details: postemergence
Method in brief: as §1

[5] = test system: ORYSAT (Rice, Tebonnet); assay: Postemergence herbicidal evaluation; type: in vivo, Oryza sativa, (L.) Tebonnet; details: postemergence
Method in brief: as §1

[6] = test system: IPOHE (Morningglory, Ivyleaf); assay: Preemergence herbicidal evaluation; type: in vivo, Ipomoea hederacea; details: rated 4-5 weeks after treatment
Method in brief: (§2)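 Sown cups got a single aqueous acetone spray of test compound (roughly 0.0156–0.500 kg/ha) before seedlings emerged. Evaluation, 4–5 weeks on, used a 0–9 visual scale covering plant stand, vigor, size, malformation, chlorosis and general appearance compared with controls.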

[7] = test system: TRZAWR (Wheat, Winter, cv Riband); assay: Preemergence herbicidal evaluation; type: in vivo, Triticum aestivum; details: rated 4-5 weeks after treatment
Method in brief: as §2

[8] = test system: ZEAMX (Corn, Field); assay: Preemergence herbicidal evaluation; type: in vivo, Zea mays; details: rated 4-5 weeks after treatment
Method in brief: as §2

[9] = test system: ECHORC (Watergrass (Calif.)); assay: Preemergence weed control under flooded paddy conditions; type: in vivo, Echinochloa oryzoides; details: rated 3-4 weeks after treatment
Method in brief: (§3)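 Ratings on a 0-9 visual scale cover stand, vigor, malformation, size, chlorosis and overall appearance relative to a control, taken three to four weeks post-treatment. Application was into flood water over freshly sown silt loam at roughly 0.0313 to 0.500 kg/ha.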

[10] = test system: CYPIR (Rice Flatsedge); assay: as above; type: in vivo, Cyperus iria; details: rated 3-4 weeks after treatment
Method in brief: as §3

[11] = test system: MOOVA (Monochoria); assay: as above; type: in vivo, Monochoria vaginalis; details: rated 3-4 weeks after treatment
Method in brief: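 Silt loam, seeds in top 0.5 cm; flood held 1.5-3 cm; test cpd as acetone/water 50/50 into flood water, ~0.0313-0.500 kg/ha a.i.; greenhouse 3-4 wk; visual 0-9 score vs control.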

[12] = test system: CYPIR (Rice Flatsedge); assay: Postemergence weed control under flooded paddy conditions; type: in vivo, Cyperus iria; details: postemergence weeds, 3-4 weeks after treatment
Method in brief: (§4)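 Injury ratings (0–9 scale covering stand, vigor, malformation, size, chlorosis and overall appearance versus control) were made three to four weeks after treatment. Test material, about 0.0313 to 0.500 kg/ha a.i. in 50/50 v/v aqueous/acetone, was added to flood water 1.5 to 3 cm deep over 3 to 5 cm weeds and 1.5 to 2.5 leaf rice.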

[13] = test system: CYPSE (Flatsedge); assay: as above; type: in vivo, Cyperus serotinus; details: postemergence weeds, 3-4 weeks after treatment
Method in brief: as §4

[14] = test system: SAGPY (Arrowhead (Pygmaea)); assay: as above; type: in vivo, Sagittaria pygmaea; details: postemergence weeds, 3-4 weeks after treatment
Method in brief: as §4

CN1C(=O)CS/C1=N/c1cc(-n2c(=O)cc(C(F)(F)F)n(C)c2=O)c(F)cc1Cl [Compound 7]
ABUTH herbicidal rating ([1]; rate 0.0157 kg/ha): 9.0 | ABUTH herbicidal rating ([1]; rate 0.0313 kg/ha): 9.0 | ABUTH herbicidal rating ([1]; rate 0.0625 kg/ha): 9.0 | ABUTH herbicidal rating ([1]; rate 0.1250 kg/ha): 9.0 | GALAP herbicidal rating ([2]; rate 0.0157 kg/ha): 3.0 | GALAP herbicidal rating ([2]; rate 0.0313 kg/ha): 4.0 | GALAP herbicidal rating ([2]; rate 0.0625 kg/ha): 5.0 | GALAP herbicidal rating ([2]; rate 0.1250 kg/ha): 9.0 | ECHCG herbicidal rating ([3]; rate 0.0157 kg/ha): 2.0 | ECHCG herbicidal rating ([3]; rate 0.0313 kg/ha): 0.0 | ECHCG herbicidal rating ([3]; rate 0.0625 kg/ha): 3.0 | ECHCG herbicidal rating ([3]; rate 0.1250 kg/ha): 4.0 | SETVI herbicidal rating ([4]; rate 0.0157 kg/ha): 5.0 | SETVI herbicidal rating ([4]; rate 0.0313 kg/ha): 4.0 | SETVI herbicidal rating ([4]; rate 0.0625 kg/ha): 9.0 | SETVI herbicidal rating ([4]; rate 0.1250 kg/ha): 9.0 | ORYSAT herbicidal rating ([5]; rate 0.0157 kg/ha): 4.5 | ORYSAT herbicidal rating ([5]; rate 0.0313 kg/ha): 4.0 | ORYSAT herbicidal rating ([5]; rate 0.0625 kg/ha): 4.5 | ORYSAT herbicidal rating ([5]; rate 0.1250 kg/ha): 6.5 | IPOHE preemergence herbicidal rating ([6]; rate 0.0313 kg/ha): 4.0 | IPOHE preemergence herbicidal rating ([6]; rate 0.0625 kg/ha): 4.0 | IPOHE preemergence herbicidal rating ([6]; rate 0.1250 kg/ha): 9.0 | IPOHE preemergence herbicidal rating ([6]; rate 0.2500 kg/ha): 9.0 | TRZAWR preemergence herbicidal rating ([7]; rate 0.0157 kg/ha): 5.0 | TRZAWR preemergence herbicidal rating ([7]; rate 0.0313 kg/ha): 6.5 | TRZAWR preemergence herbicidal rating ([7]; rate 0.0625 kg/ha): 7.5 | TRZAWR preemergence herbicidal rating ([7]; rate 0.1250 kg/ha): 8.5 | TRZAWR preemergence herbicidal rating ([7]; rate 0.2500 kg/ha): 8.5 | ZEAMX preemergence herbicidal rating ([8]; rate 0.0157 kg/ha): 7.0 | ZEAMX preemergence herbicidal rating ([8]; rate 0.0313 kg/ha): 8.0 | ZEAMX preemergence herbicidal rating ([8]; rate 0.0625 kg/ha): 8.5 | ZEAMX preemergence herbicidal rating ([8]; rate 0.1250 kg/ha): 8.5 | ZEAMX preemergence herbicidal rating ([8]; rate 0.2500 kg/ha): 9.0 | Herbicidal rating ECHORC ([9]; 0.0313 kg/ha): 8.0 | Herbicidal rating ECHORC ([9]; 0.0625 kg/ha): 9.0 | Herbicidal rating ECHORC ([9]; 0.1250 kg/ha): 9.0 | Herbicidal rating ECHORC ([9]; 0.2500 kg/ha): 9.0 | Herbicidal rating CYPIR ([10]; 0.0313 kg/ha): 8.0 | Herbicidal rating CYPIR ([10]; 0.0625 kg/ha): 9.0 | Herbicidal rating CYPIR ([10]; 0.1250 kg/ha): 9.0 | Herbicidal rating CYPIR ([10]; 0.2500 kg/ha): 9.0 | Herbicidal rating MOOVA ([11]; 0.0313 kg/ha): 9.0 | Herbicidal rating MOOVA ([11]; 0.0625 kg/ha): 9.0 | Herbicidal rating MOOVA ([11]; 0.1250 kg/ha): 9.0 | Herbicidal rating MOOVA ([11]; 0.2500 kg/ha): 9.0 | Herbicidal rating CYPIR ([12]; rate 0.0313 kg/ha): 8.5 | Herbicidal rating CYPIR ([12]; rate 0.0625 kg/ha): 9.0 | Herbicidal rating CYPIR ([12]; rate 0.1250 kg/ha): 9.0 | Herbicidal rating CYPIR ([12]; rate 0.2500 kg/ha): 9.0 | Herbicidal rating CYPSE ([13]; rate 0.0313 kg/ha): 3.0 | Herbicidal rating CYPSE ([13]; rate 0.0625 kg/ha): 7.0 | Herbicidal rating CYPSE ([13]; rate 0.1250 kg/ha): 7.5 | Herbicidal rating CYPSE ([13]; rate 0.2500 kg/ha): 8.0 | Herbicidal rating SAGPY ([14]; rate 0.0313 kg/ha): 3.0 | Herbicidal rating SAGPY ([14]; rate 0.0625 kg/ha): 5.5 | Herbicidal rating SAGPY ([14]; rate 0.1250 kg/ha): 7.5 | Herbicidal rating SAGPY ([14]; rate 0.2500 kg/ha): 8.5
